Measurements taken from patent publication US6849599B2, “Combination drug therapy” (priority 2000, dated 2005).

Assays:
HT29 cells = assay: Tumor growth in nude mice bearing xenografts of human colon tumor cell line HT29; assay type: in vivo; details: for Treated tumor size/Control tumor size (T/C): p<0.05
Protocol: The antineoplastic activity of TSP plus CPT-11 was evaluated in an art-recognized model for cancer, nude mice bearing xenografts of the human colon tumor cell line HT29.

[1] = Toxicity and mortality in the treated HT29 xenograft nude mice; assay type: in vivo
Protocol: For in vivo studies, nude mice were inoculated subcutaneously in the left axillary region with 5×10^6 HT29 cells. When tumors were palpable (approximately 50 mg), mice were divided into groups (n=15-22) and treated as follows: (i) no treatment; (ii) TSP alone (5-40 mg/kg intraperitoneally) (iii) CPT-11 alone (100-300 mg/kg intraperitoneally); or (iv) TSP (20 mg/kg)+CPT-11 (150 mg/kg). TSP was injected daily while CPT-11 was administered on days 0, 7, 14, and 21. Mice were weighed and tumors measured twice weekly. […] Treated tumor size/Control tumor size (T/C) equaled 0.64 or 0.57, respectively. […] When TSP was combined with CPT-11, a highly significant inhibition of tumor growth was observed compared to control (T/C=0.1, with p=0.00002) and compared to CPT-11 alone (p=0.0008).

Compound | average T/C (HT29 cells; CPT-11 alone, all doses (100-300 mg/kg intraperitoneally, days 0, 7, 14, 21), day 28, p<0.001) | Toxicity and mortality ([1]; CPT-11 alone at 250 mg/kg intraperitoneally) | Toxicity and mortality ([1]; CPT-11 alone at 300 mg/kg intraperitoneally) | Treated tumor size/Control tumor size (T/C) (HT29 cells; TSP alone 10 mg/kg intraperitoneally daily, day 28) | Treated tumor size/Control tumor size (T/C) (HT29 cells; TSP alone 20 mg/kg intraperitoneally daily, day 28) | Inhibition of tumor growth, other doses (HT29 cells; TSP alone, other doses of 5-40 mg/kg intraperitoneally daily, compared with 10 or 20 mg/kg)
CCc1c2c(nc3ccc(OC(=O)N4CCC(N5CCCCC5)CC4)cc13)-c1cc3c(c(=O)n1C2)COC(=O)[C@]3(O)CC [CPT-11, 7-ethyl-10-[4-(1-piperidino)-1-piperidino]-carbonloxycamptothecin] | 0.3 | induced significant toxicity and mortality | induced significant toxicity and mortality | – | – | –
Thrombospondin-1 [TSP] | – | – | – | 0.64 | 0.57 | less effective
